Four compounds from PMC7366380, “Discovery of a Potent and Selective Covalent Inhibitor and Activity-Based Probe for the Deubiquitylating Enzyme UCHL1, with Antifibrotic Activity” (Journal of the American Chemical Society, 2020) can be followed below.

Some results are limits rather than exact numbers.

As usually defined, the IC50 is the concentration at which inhibition is half-maximal.

For one experiment, the target named is T1, USP25 (Homo sapiens, UniProt Q9UHP3).
T1 sequence (Q9UHP3 1-1055): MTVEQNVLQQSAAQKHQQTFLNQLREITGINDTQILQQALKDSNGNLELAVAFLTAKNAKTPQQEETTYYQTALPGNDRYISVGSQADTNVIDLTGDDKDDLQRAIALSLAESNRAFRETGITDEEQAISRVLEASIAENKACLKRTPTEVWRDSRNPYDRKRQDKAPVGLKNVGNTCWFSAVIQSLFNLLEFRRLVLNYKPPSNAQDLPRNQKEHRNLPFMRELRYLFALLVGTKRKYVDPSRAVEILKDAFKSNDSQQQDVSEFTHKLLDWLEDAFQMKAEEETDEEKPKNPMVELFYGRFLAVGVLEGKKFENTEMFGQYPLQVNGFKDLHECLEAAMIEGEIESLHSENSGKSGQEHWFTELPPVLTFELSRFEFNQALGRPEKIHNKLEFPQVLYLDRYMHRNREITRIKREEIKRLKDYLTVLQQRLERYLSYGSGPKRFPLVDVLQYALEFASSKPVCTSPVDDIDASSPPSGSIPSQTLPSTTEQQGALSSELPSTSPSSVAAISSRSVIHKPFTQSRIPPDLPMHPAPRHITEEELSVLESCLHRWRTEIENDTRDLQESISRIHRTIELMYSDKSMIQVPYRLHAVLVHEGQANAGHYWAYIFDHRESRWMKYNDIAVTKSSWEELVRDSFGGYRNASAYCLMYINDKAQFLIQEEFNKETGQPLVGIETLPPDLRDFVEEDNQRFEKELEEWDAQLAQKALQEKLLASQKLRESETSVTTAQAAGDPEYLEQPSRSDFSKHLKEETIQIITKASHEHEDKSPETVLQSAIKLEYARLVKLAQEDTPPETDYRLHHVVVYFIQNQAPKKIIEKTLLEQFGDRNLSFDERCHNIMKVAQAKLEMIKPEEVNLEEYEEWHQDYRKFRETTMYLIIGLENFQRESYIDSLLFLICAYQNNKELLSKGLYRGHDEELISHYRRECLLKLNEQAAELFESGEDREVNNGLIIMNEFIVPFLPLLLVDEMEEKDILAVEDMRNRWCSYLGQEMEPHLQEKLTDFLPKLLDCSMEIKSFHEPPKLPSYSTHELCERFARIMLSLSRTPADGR
The experiment in a line: Biochemical DUB selectivity profiling assay: USP25. The settings on record: Ub-Lys-TAMRA 50 nM, buffer B; read-out: Biochemical IC50 range, USP25. The procedure:
(§1) DUB Assay Substrate Substrate
(§2) Buffer Concentration (nM) […]
(§3) Sepharose® 4B resin (GE Healthcare).
(§4) 10 kDa molecular weight cut-off (MWCO)).
(§5) Fractions containing protein
(§6) Protein concentration was […]
(§7) reaction volume of 21 μL. […]
(§8) compound (final concentration 5 nM).
(§9) IC50 values were determined
(§10) Biochemical DUB selectivity profiling assays […]
(§11) in 40 µL total reaction volume.

A further experiment deals with USP1 (Homo sapiens, UniProt O94782). Kind of experiment: biochemical.
A further experiment deals with T2, USP35 (Homo sapiens, UniProt Q9P2H5).
T2 sequence (Q9P2H5 1-1018): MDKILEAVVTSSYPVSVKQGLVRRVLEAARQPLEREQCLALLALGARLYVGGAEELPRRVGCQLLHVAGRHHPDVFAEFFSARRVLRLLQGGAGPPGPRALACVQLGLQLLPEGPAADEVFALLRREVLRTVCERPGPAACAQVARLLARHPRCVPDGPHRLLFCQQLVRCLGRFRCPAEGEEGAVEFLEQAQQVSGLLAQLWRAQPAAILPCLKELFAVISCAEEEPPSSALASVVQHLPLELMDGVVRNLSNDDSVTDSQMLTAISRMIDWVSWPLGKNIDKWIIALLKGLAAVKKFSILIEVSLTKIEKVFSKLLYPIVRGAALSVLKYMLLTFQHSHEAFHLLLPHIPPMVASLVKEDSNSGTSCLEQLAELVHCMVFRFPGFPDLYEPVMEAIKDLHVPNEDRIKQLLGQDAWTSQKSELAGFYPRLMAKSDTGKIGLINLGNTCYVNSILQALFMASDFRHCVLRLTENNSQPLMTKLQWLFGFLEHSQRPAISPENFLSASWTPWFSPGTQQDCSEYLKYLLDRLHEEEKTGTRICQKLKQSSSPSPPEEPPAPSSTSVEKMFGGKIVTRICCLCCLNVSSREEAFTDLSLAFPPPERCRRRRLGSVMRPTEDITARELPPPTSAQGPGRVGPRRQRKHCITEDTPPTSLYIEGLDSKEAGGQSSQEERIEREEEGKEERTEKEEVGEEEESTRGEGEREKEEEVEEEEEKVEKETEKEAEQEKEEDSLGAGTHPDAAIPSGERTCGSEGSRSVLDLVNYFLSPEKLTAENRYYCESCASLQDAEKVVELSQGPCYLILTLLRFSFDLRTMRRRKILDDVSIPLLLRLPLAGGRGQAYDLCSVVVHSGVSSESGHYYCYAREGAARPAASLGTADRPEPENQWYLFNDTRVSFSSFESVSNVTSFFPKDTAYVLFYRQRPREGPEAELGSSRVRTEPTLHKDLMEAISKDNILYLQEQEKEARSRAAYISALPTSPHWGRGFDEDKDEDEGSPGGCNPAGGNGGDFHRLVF
Kind of experiment: Biochemical DUB selectivity profiling assay: USP35. The settings on record: Ub-Lys-TAMRA 50 nM, buffer B; read-out: Biochemical IC50 range, USP35. How it is done: as §1, §2, §3, §4, §5, §6, §7, §8, §9, §10, §11

Another experiment addresses T3, BAP1 (Homo sapiens, UniProt Q92560).
T3 sequence (Q92560 1-729): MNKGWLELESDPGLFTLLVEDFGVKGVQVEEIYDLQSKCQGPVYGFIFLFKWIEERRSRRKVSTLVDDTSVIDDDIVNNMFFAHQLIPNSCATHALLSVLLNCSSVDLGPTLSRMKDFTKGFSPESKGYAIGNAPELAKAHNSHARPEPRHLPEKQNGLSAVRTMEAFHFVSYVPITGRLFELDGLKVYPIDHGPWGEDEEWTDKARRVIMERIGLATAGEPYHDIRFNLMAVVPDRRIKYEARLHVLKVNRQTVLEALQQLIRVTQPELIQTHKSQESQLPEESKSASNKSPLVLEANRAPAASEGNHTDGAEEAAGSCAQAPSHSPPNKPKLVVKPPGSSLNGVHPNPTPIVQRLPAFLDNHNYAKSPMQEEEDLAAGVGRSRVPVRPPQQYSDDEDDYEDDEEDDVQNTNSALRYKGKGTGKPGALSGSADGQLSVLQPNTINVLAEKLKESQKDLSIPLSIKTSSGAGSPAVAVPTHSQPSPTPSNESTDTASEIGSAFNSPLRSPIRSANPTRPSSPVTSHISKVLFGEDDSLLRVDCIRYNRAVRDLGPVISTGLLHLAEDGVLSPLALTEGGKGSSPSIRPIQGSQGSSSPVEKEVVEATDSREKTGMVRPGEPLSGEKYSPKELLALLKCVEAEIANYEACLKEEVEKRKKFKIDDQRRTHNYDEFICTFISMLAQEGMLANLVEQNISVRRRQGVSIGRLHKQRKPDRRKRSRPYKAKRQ
The experiment in a line: biochemical.

Chain of USP1 (O94782 whole entry, species assumed): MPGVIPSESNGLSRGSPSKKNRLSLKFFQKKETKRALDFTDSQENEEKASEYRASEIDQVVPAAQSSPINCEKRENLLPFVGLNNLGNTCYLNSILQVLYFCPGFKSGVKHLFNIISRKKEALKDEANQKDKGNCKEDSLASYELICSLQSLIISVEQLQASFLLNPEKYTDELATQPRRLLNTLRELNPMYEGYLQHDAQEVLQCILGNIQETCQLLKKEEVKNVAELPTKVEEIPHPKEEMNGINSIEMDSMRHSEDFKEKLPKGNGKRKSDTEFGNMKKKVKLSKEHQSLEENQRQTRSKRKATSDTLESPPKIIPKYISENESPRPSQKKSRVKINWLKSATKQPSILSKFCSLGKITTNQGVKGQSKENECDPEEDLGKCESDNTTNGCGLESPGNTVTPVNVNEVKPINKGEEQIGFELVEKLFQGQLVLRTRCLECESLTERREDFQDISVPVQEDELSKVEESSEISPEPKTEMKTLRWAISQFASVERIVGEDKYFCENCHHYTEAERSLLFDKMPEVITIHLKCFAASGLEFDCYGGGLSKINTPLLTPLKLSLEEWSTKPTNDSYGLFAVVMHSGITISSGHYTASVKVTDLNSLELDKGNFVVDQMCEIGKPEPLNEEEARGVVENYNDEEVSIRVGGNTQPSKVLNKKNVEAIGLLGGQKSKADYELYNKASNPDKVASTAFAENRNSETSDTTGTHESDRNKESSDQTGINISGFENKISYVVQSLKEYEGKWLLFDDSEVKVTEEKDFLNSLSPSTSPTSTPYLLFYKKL
Chain of USP1 (Q8TAF3 whole entry partner, species assumed): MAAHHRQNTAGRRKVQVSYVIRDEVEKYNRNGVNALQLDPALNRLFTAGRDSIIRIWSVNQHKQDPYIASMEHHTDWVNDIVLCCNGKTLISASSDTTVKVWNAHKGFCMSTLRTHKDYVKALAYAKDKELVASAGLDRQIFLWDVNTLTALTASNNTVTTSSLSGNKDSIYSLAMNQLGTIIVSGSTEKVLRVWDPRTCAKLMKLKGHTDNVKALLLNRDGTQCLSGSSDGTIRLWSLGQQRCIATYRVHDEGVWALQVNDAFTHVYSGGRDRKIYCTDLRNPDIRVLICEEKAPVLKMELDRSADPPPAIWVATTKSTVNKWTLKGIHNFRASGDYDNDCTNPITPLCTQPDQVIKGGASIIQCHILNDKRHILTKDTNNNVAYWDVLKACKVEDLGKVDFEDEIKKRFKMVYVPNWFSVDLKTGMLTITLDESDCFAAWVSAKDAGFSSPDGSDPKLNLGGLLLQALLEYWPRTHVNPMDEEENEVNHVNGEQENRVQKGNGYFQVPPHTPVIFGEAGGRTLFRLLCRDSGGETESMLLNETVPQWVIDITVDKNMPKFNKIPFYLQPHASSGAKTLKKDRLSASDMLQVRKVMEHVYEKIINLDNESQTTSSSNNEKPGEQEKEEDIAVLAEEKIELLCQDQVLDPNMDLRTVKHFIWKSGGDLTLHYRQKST

Turning to `N#CN1CCC[C@H]1C(=O)N1CCc2c(-c3c[nH]c4ncccc34)cccc21` [Compound 1], the IC50 is over 10 µM at USP25, over 10 µM against USP1, over 10 µM on USP35 and 1 to 10 µM against BAP1.

With `C#Cc1cnc2[nH]cc(-c3cccc4c3CCN4C(=O)[C@@H]3CCCN3C#N)c2c1` [Compound 2], the IC50 on USP25 and on USP35 was over 10 µM in each case.

For `N#CN1CCC[C@@H]1C(=O)N1CCc2c(-c3c[nH]c4ncccc34)cccc21` [Compound 3], the IC50 at USP25, on USP1, on USP35 and on BAP1 was over 10 µM throughout.

For `CC(=O)O/N=C1\C(=O)N(Cc2cc(Cl)ccc2Cl)c2ccc(Cl)cc21` [LDN-57444, reference compound], the IC50 on USP25, against USP1, at USP35 and at BAP1 was over 10 µM in each case.
